# From publication PMC11062899, “De novo development of small cyclic peptides that are orally bioavailable” (Nature Chemical Biology, 2023)
# “And” between values parts separate entries of the source, which are not always exact repeats. Identical values can stand only once. Like-named read-outs stand apart in the source and are kept apart here.
# Legend:
# human α-thrombin = human α-thrombin (Homo sapiens, UniProt P00734); test: Protease inhibition, Ki for human α-thrombin (fluorogenic substrate Z-Gly-Gly-Arg-AMC); assay type: biochemical; conditions: for Human alpha thrombin inhibition, slope normalized to DMSO: replicates R1-R3
# Description: (§1) The inhibition constants (Ki) of cyclic peptides were calculated by measuring thrombin inhibition in the presence of different concentrations of the cyclic peptides. […] Human α-thrombin (Molecular Innovations) and rat α-thrombin (Molecular Innovations) were used at final concentrations of 2 nM and 3 nM, respectively, and fluorogenic substrate (Z-Gly-Gly-Arg-AMC, Bachem) was used at a concentration of 50 μM. Enzymatic activity was determined by measuring fluorescent gain on a Tecan Infinite M200 Pro microplate reader (excitation: 360 nm, emission: 465 nm) or a PHERAstar FSX microplate reader (excitation: 380 nm, emission: 440 nm) for 30 min at 25 °C with a fluorescent readout every 3 min. The two instruments were controlled with Tecan Infinite M200 Pro instrument software (iControl, version 1.12) and PHERAstar FSX software (version 5.70, edition 8), respectively. Protease inhibition was calculated by comparing the enzymatic activity to a control without cyclic peptide.
# (§2) Half maximal inhibitory concentration (IC50) values were determined using a four-parameter logistic regression model in GraphPad Prism 9 to fit sigmoidal curves to the acquired data points according to equation (2) below.2 y=b+a−b/1+10^(logIC50−x)p where a and b represent the measured inhibition maximum and minimum, respectively; x is the logarithm of peptide concentration; y is the thrombin activity compared to a control without the cyclic peptide; and p is the Hill coefficient.
# (§3) Ki values were calculated using the IC50 and the Cheng–Prusoff equation (equation (3)).3 Ki=IC50/1+S0/Km where Km is the Michaelis–Menten constant of the enzyme for the substrate used in the assay, and [S]0 is the initial substrate concentration.
# rat α-thrombin = target: T1, rat α-thrombin (Rattus norvegicus, UniProt P18292); test: Protease inhibition, Ki for rat α-thrombin (fluorogenic substrate Z-Gly-Gly-Arg-AMC); assay type: biochemical; conditions: for Rat alpha thrombin inhibition, slope normalized to DMSO: replicates R1-R3
# T1 construct: rat α-thrombin (Molecular Innovations) were used at final concentrations of 2 nM and 3 nM; purchased Molecular Innovations
# Description: as §1, §2, §3
# [1] = Passive artificial membrane permeability (PAMPA);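 on Permeability% Average: top well sample relative to theoretical equilibrium sample by TIC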
# [2] = peptide concentration 1.00E+02 uM
# [3] = peptide concentration 1.19E-05 uM
# [4] = peptide concentration 1.22E-02 uM
# [5] = peptide concentration 1.25E+01 uM
# [6] = peptide concentration 1.53E-03 uM
# [7] = peptide concentration 1.56E+00 uM
# [8] = peptide concentration 1.91E-04 uM
# [9] = peptide concentration 1.95E-01 uM
# [10] = peptide concentration 2.38E-05 uM
# [11] = peptide concentration 2.44E-02 uM
# [12] = peptide concentration 2.50E+01 uM
# [13] = peptide concentration 3.05E-03 uM
# [14] = peptide concentration 3.12E+00 uM
# [15] = peptide concentration 3.81E-04 uM
# [16] = peptide concentration 3.91E-01 uM
# [17] = peptide concentration 4.77E-05 uM
# [18] = peptide concentration 4.88E-02 uM
# [19] = peptide concentration 5.00E+01 uM
# [20] = peptide concentration 6.10E-03 uM
# [21] = peptide concentration 6.25E+00 uM
# [22] = peptide concentration 7.63E-04 uM
# [23] = peptide concentration 7.81E-01 uM
# [24] = peptide concentration 9.54E-05 uM
# [25] = peptide concentration 9.77E-02 uM
smiles,measurement,setting,value
O=C1C[C@H]2CCCN2C(=O)[C@H](Cc2ccccc2)NC(=O)[C@@H](NC(=O)c2ccc(Cl)s2)CC=CCCN1 [compound 38],Ki,"human α-thrombin; average of R1-R3, read-out: Human alpha thrombin inhibition, Ki Average",13.5 µM
same,"Human alpha thrombin inhibition, slope normalized to DMSO",human α-thrombin; [2],31.6 and 35.9 and 30.7
same,"Human alpha thrombin inhibition, slope normalized to DMSO",human α-thrombin; [3],101.3 and 100.2 and 102.3
same,"Human alpha thrombin inhibition, slope normalized to DMSO",human α-thrombin; [4],84.3 and 92.4 and 75.3
same,"Human alpha thrombin inhibition, slope normalized to DMSO",human α-thrombin; [5],48.4 and 51.8 and 74.4
same,"Human alpha thrombin inhibition, slope normalized to DMSO",human α-thrombin; [6],103.9 and 109.7 and 90.7
same,"Human alpha thrombin inhibition, slope normalized to DMSO",human α-thrombin; [7],99.7 and 78.4 and 78.8
same,"Human alpha thrombin inhibition, slope normalized to DMSO",human α-thrombin; [8],77.5 and 96.9 and 61.6
same,"Human alpha thrombin inhibition, slope normalized to DMSO",human α-thrombin; [9],89.1 and 92.2 and 110.9
same,"Human alpha thrombin inhibition, slope normalized to DMSO",human α-thrombin; [10],100.0 and 95.0 and 108.2
same,"Human alpha thrombin inhibition, slope normalized to DMSO",human α-thrombin; [11],94.6 and 85.5 and 101.2
same,"Human alpha thrombin inhibition, slope normalized to DMSO",human α-thrombin; [12],53.9 and 24.7 and 59.2
same,"Human alpha thrombin inhibition, slope normalized to DMSO",human α-thrombin; [13],85.8 and 106.8 and 92.3
same,"Human alpha thrombin inhibition, slope normalized to DMSO",human α-thrombin; [14],95.0 and 56.6 and 60.0
same,"Human alpha thrombin inhibition, slope normalized to DMSO",human α-thrombin; [15],92.8 and 100.9 and 102.1
same,"Human alpha thrombin inhibition, slope normalized to DMSO",human α-thrombin; [16],92.5 and 76.5 and 47.1
same,"Human alpha thrombin inhibition, slope normalized to DMSO",human α-thrombin; [17],103.7 and 96.6 and 101.3
same,"Human alpha thrombin inhibition, slope normalized to DMSO",human α-thrombin; [18],96.6 and 92.9 and 84.5
same,"Human alpha thrombin inhibition, slope normalized to DMSO",human α-thrombin; [19],32.5 and 38.9 and 43.6
same,"Human alpha thrombin inhibition, slope normalized to DMSO",human α-thrombin; [20],87.4 and 95.7 and 97.4
same,"Human alpha thrombin inhibition, slope normalized to DMSO",human α-thrombin; [21],82.6 and 51.0 and 64.7
same,"Human alpha thrombin inhibition, slope normalized to DMSO",human α-thrombin; [22],95.6 and 106.3 and 100.0
same,"Human alpha thrombin inhibition, slope normalized to DMSO",human α-thrombin; [23],102.1 and 69.9 and 79.9
same,"Human alpha thrombin inhibition, slope normalized to DMSO",human α-thrombin; [24],104.1 and 95.0 and 102.4
same,"Human alpha thrombin inhibition, slope normalized to DMSO",human α-thrombin; [25],95.1 and 96.0 and 81.6
same,Ki,"rat α-thrombin; average of R1-R3, read-out: Rat alpha thrombin inhibition, Ki Average",5.05 µM
same,"Rat alpha thrombin inhibition, slope normalized to DMSO",rat α-thrombin; [2],15.8 and 16.4 and 8.2
same,"Rat alpha thrombin inhibition, slope normalized to DMSO",rat α-thrombin; [3],106.1 and 100.1 and 101.4
same,"Rat alpha thrombin inhibition, slope normalized to DMSO",rat α-thrombin; [4],97.4 and 88.6 and 86.5
same,"Rat alpha thrombin inhibition, slope normalized to DMSO",rat α-thrombin; [5],49.8 and 47.2 and 35.5
same,"Rat alpha thrombin inhibition, slope normalized to DMSO",rat α-thrombin; [6],108.8 and 100.7 and 95.7
same,"Rat alpha thrombin inhibition, slope normalized to DMSO",rat α-thrombin; [7],89.9 and 88.6 and 50.7
same,"Rat alpha thrombin inhibition, slope normalized to DMSO",rat α-thrombin; [8],112.7 and 100.1 and 96.0
same,"Rat alpha thrombin inhibition, slope normalized to DMSO",rat α-thrombin; [9],101.4 and 102.2 and 81.9
same,"Rat alpha thrombin inhibition, slope normalized to DMSO",rat α-thrombin; [10],107.4 and 102.3 and 104.3
same,"Rat alpha thrombin inhibition, slope normalized to DMSO",rat α-thrombin; [11],116.5 and 84.1 and 102.5
same,"Rat alpha thrombin inhibition, slope normalized to DMSO",rat α-thrombin; [12],36.8 and 26.2 and 18.8
same,"Rat alpha thrombin inhibition, slope normalized to DMSO",rat α-thrombin; [13],100.6 and 93.4 and 89.7
same,"Rat alpha thrombin inhibition, slope normalized to DMSO",rat α-thrombin; [14],83.7 and 72.5 and 77.4
same,"Rat alpha thrombin inhibition, slope normalized to DMSO",rat α-thrombin; [15],105.1 and 100.1 and 102.4
same,"Rat alpha thrombin inhibition, slope normalized to DMSO",rat α-thrombin; [16],105.0 and 93.1 and 59.9
same,"Rat alpha thrombin inhibition, slope normalized to DMSO",rat α-thrombin; [17],108.7 and 101.6 and 109.2
same,"Rat alpha thrombin inhibition, slope normalized to DMSO",rat α-thrombin; [18],113.8 and 100.8 and 93.5
same,"Rat alpha thrombin inhibition, slope normalized to DMSO",rat α-thrombin; [19],30.2 and 11.5 and 16.5
same,"Rat alpha thrombin inhibition, slope normalized to DMSO",rat α-thrombin; [20],96.7 and 102.7 and 104.0
same,"Rat alpha thrombin inhibition, slope normalized to DMSO",rat α-thrombin; [21],71.7 and 61.7 and 68.8
same,"Rat alpha thrombin inhibition, slope normalized to DMSO",rat α-thrombin; [22],91.7 and 100.9 and 102.6
same,"Rat alpha thrombin inhibition, slope normalized to DMSO",rat α-thrombin; [23],88.3 and 82.4 and 91.2
same,"Rat alpha thrombin inhibition, slope normalized to DMSO",rat α-thrombin; [24],111.4 and 103.7 and 104.6
same,"Rat alpha thrombin inhibition, slope normalized to DMSO",rat α-thrombin; [25],106.1 and 99.6 and 107.1
same,IC50,"rat α-thrombin; single replicates R1-R3, read-out: Rat alpha thrombin inhibition, IC50",11.8 µM and 9.26 µM and 6.34 µM
same,Ki,"rat α-thrombin; single replicates R1-R3, read-out: Rat alpha thrombin inhibition, Ki",6.5 µM and 5.12 µM and 3.51 µM
same,PAMPA permeability: % permeability,"[1]; 50 μM, 12–18 h, acceptor concentration relative to equilibrium",32 ± 6%
same,Permeability% (single replicates R1–R3),"[1]; 50 μM, 13 h (Fig. 5d)",25.39% and 36.84% and 33.06%
same,Permeability% Average,"[1]; 50 μM, 13 h (Fig. 5d)",31.8%
same,Papp at 50 μM,"[1]; PAMPA, pH 7.4",3.47 ×10⁻⁶ cm/s
